Test results as given in US20190159450A1, “PYRIDINE-BASED COMPOUND INCLUDING ISOXAZOLINE RING AND USE THEREOF AS HERBICIDE” (MOGHU RESEARCH CENTER LTD., priority 2016, published 2019).

Tests used:
Format in all cases: in vivo
Quamoclit pennata [1] = assay: Herbicidal activity test, pre-weeds emergence treatment; conditions: assessed 2 to 3 weeks after spraying, scale 0-10 (0: no effect, 10: complete death)
Protocol: (§1) A rectangular plastic pot with a surface area of 300 cm^2 was filled with sandy loam soil and mixed soil at a ratio of 1:1, and four kinds of weeds including Quamoclit pennata, Abutilon theophrasti Medicus, and Aeschynomene indica, Xanthium strumarium were sown therein. In another pot made in the same way, three kinds of crop seeds including maize, wheat, and rice were sown. The pots were watered and one day later, a medicament was sprayed thereon. The spraying was performed by using a track sprayer (R&D Sprayer, USA) equipped with Teejet 8002EVS (Spraying Systems Co., USA) nozzle, and the spray amount was controlled to be 1000 L/ha. A spray solution was prepared by dissolving the compound of each example or a control material in acetone, and then, adding the same amount of 0.1% (v/v) tween 20 aqueous solution thereto. The spray amount was 200 g/ha. The pots were placed in a greenhouse in which the temperature was maintained at 25° C. to 30° C. during the day and 15° C. to 25° C. during the night, and was regularly watered. After 2 to 3 weeks from the spraying of the compounds or the control material, the efficacy and the damages on each weed and each crop were assessed according to the scale of 0-10 (0: no effect, 10: complete death) scale and the results are shown in Table 3 below.
(§2) Pots for crops and weeds were prepared in the same manner as the test method illustrated in Table 3, and three kinds of weeds selected from Quamoclit pennata, Abutilon theophrasti Medicus, and Aeschynomene indica, Xanthium strumarium were used.

Aeschynomene indica [2] = assay: as above; conditions: assessed 2 to 3 weeks after spraying, scale 0-10 (0: no effect, 10: complete death)
Protocol: as §1, §2

Xanthium strumarium [3] = assay: as above; conditions: assessed 2 to 3 weeks after spraying, scale 0-10 (0: no effect, 10: complete death)
Protocol: as §1, §2

[4] = system: Abutilon theophrasti Medicus; assay: as above; conditions: assessed 2 to 3 weeks after spraying, scale 0-10 (0: no effect, 10: complete death)
Protocol: as §1, §2

rice [5] = assay: Herbicidal activity test, post-weeds emergence treatment (crop damage); conditions: assessed after 2 to 3 weeks, 0: no effect, 10: complete death
Protocol: as §1
(§3) Pots for crops and weeds were prepared in the same manner as in Experimental Example 1, and then, when the crops and the weeds were raised up to 2 weeks roughly on a third-leaf stage, the compounds and the control material were sprayed thereon in the same manner as described above. The spray amount was 200 g/ha. After 2 to 3 weeks from the spraying of the test substance or the control substance, the efficacy and the damages on each weed and each crop were assessed according to the scale of 0-10 (0: no effect, 10: complete death) scale.
as §2, with “5,” for “3,”, “four” for “three”, “used. The spray amount was 200 g/ha for crops and 50 g/ha for weeds.” for “used.”

maize [6] = assay: as above; conditions: assessed after 2 to 3 weeks, 0: no effect, 10: complete death
Protocol: as §1, §3
as §2, with “5,” for “3,”, “four” for “three”, “used. The spray amount was 200 g/ha for crops and 50 g/ha for weeds.” for “used.”

wheat [7] = assay: as above; conditions: assessed after 2 to 3 weeks, 0: no effect, 10: complete death
Protocol: as §1, §3
as §2, with “5,” for “3,”, “four” for “three”, “used. The spray amount was 200 g/ha for crops and 50 g/ha for weeds.” for “used.”

Quamoclit pennata [8] = assay: Herbicidal activity test, post-weeds emergence treatment; conditions: assessed after 2 to 3 weeks, 0: no effect, 10: complete death
Protocol: as §1, §3
as §2, with “5,” for “3,”, “four” for “three”, “used. The spray amount was 200 g/ha for crops and 50 g/ha for weeds.” for “used.”

Aeschynomene indica [9] = assay: as above; conditions: assessed after 2 to 3 weeks, 0: no effect, 10: complete death
Protocol: as §1, §3
as §2, with “5,” for “3,”, “four” for “three”, “used. The spray amount was 200 g/ha for crops and 50 g/ha for weeds.” for “used.”

Xanthium strumarium [10] = assay: as above; conditions: assessed after 2 to 3 weeks, 0: no effect, 10: complete death
Protocol: as §1, §3
as §2, with “5,” for “3,”, “four” for “three”, “used. The spray amount was 200 g/ha for crops and 50 g/ha for weeds.” for “used.”

[11] = system: Abutilon theophrasti Medicus; assay: as above; conditions: assessed after 2 to 3 weeks, 0: no effect, 10: complete death
Protocol: as §1, §3
as §2, with “5,” for “3,”, “four” for “three”, “used. The spray amount was 200 g/ha for crops and 50 g/ha for weeds.” for “used.”

rice [12] = assay: Herbicidal activity test, pre-weeds emergence treatment (crop damage); conditions: assessed 2 to 3 weeks after spraying, scale 0-10 (0: no effect, 10: complete death)
Protocol: as §1, §2

maize [13] = assay: as above; conditions: assessed 2 to 3 weeks after spraying, scale 0-10 (0: no effect, 10: complete death)
Protocol: as §1, §2

wheat [14] = assay: as above; conditions: assessed 2 to 3 weeks after spraying, scale 0-10 (0: no effect, 10: complete death)
Protocol: as §1, §2

[15] = spray amount 200 g/ha for crops, Table 6
[16] = spray amount 50 g/ha for weeds, Table 6

| SMILES | PRE IPOAN (Quamoclit pennata), efficacy score (Quamoclit pennata [1]; Table 4, 200 g/ha) | PRE AESIN (Aeschynomene indica), efficacy score (Aeschynomene indica [2]; Table 4, 200 g/ha) | PRE XANST (Xanthium strumarium), efficacy score (Xanthium strumarium [3]; Table 4, 200 g/ha) | PRE ABUTH (Abutilon theophrasti Medicus), efficacy score ([4]; Table 4, 200 g/ha) | ORYSA (rice) damage, scale of 0-10 (rice [5]; [15]) | ZEAMX (maize) damage, scale of 0-10 (maize [6]; [15]) | TRZAW (wheat) damage, scale of 0-10 (wheat [7]; [15]) | IPOAN (Quamoclit pennata) herbicidal efficacy, scale of 0-10 (Quamoclit pennata [8]; [16]) | AESIN (Aeschynomene indica) herbicidal efficacy, scale of 0-10 (Aeschynomene indica [9]; [16]) | XANST (Xanthium strumarium) herbicidal efficacy, scale of 0-10 (Xanthium strumarium [10]; [16]) | ABUTH (Abutilon theophrasti Medicus) herbicidal efficacy, scale of 0-10 [11, 16] | PRE ORYSA (rice), damage score (rice [12]; Table 4, 200 g/ha) | PRE ZEAMX (maize), damage score (maize [13]; Table 4, 200 g/ha) | PRE TRZAW (wheat), damage score (wheat [14]; Table 4, 200 g/ha) | further results |
| --- | --- | --- | --- | --- | --- | --- | --- | --- | --- | --- | --- | --- | --- | --- | --- |
| COc1ccc(COC(=O)c2nc(C3CC(Br)=NO3)cc(N)c2Cl)cc1 (centres unmarked) [Compound 89, 4-methoxybenzyl 4-amino-6-(3-bromo-4,5-dihydroisoxazol-5-yl)-3-chloropicolinate] | 8 | 10 | 10 | 8 | 0 | 0 | 0 | 5 | 8 | 9 | 6 | 0 | 0 | 0 |  |
| Nc1cc(C2CC(Br)=NO2)nc(C(=O)OCc2ccc(F)cc2)c1Cl (centres unmarked) [Compound 90, 4-fluorobenzyl 4-amino-6-(3-bromo-4,5-dihydroisoxazol-5-yl)-3-chloropicolinate] | 3 | 10 | 7 | 3 | 0 | 0 | 0 | 4 | 7 | 10 | 5 | 0 | 0 | 0 |  |
| Nc1cc(C2CC(Br)=NO2)nc(C(=O)OCc2ccc(Br)cc2)c1Cl (centres unmarked) [Compound 91, 4-bromobenzyl 4-amino-6-(3-bromo-4,5-dihydroisoxazol-5-yl)-3-chloropicolinate] | 2 | 6 | 6 | 10 | 0 | 0 | 0 | 5 | 6 | 10 | 5 | 0 | 0 | 0 |  |
| Nc1cc(C2CC(Cl)=NO2)nc(C(=O)Oc2ccccc2)c1Cl (centres unmarked) [Compound 94, phenyl 4-amino-3-chloro-6-(3-chloro-4,5-dihydroisoxazol-5-yl)picolinate] | 10 | 10 | 10 | 10 | 3 | 0 | 0 | 8 | 10 | 10 | 10 | 7 | 2 | 0 |  |
| Nc1cc(C2CC(Cl)=NO2)nc(C(=O)OCc2ccccc2)c1Cl (centres unmarked) [Compound 95, benzyl 4-amino-3-chloro-6-(3-chloro-4,5-dihydroisoxazol-5-yl)picolinate] | 0 | 10 | 10 | 10 | 1 | 1 | 1 | 8 | 10 | 10 | 10 | 6 | 0 | 0 |  |
| Nc1c(Cl)c(F)nc(OCC(=O)O)c1Cl [fluroxypyr, reference compound] | 9 | 10 | 9 | 7 | 3 | 3 | 0 | 6 | 3 | 10 | 7 | 8 | 4 | 3 | PRE IPOAN (Quamoclit pennata), efficacy score (Quamoclit pennata [1]; Table 3, 200 g/ha): 9; PRE AESIN (Aeschynomene indica), efficacy score (Aeschynomene indica [2]; Table 3, 200 g/ha): 9; PRE XANST (Xanthium strumarium), efficacy score (Xanthium strumarium [3]; Table 3, 200 g/ha): 9; PRE ABUTH (Abutilon theophrasti Medicus), efficacy score ([4]; Table 3, 200 g/ha): 7; ORYSA (rice) damage, scale of 0-10 (rice [5]; spray amount 200 g/ha, Table 5): 4; ZEAMX (maize) damage, scale of 0-10 (maize [6]; spray amount 200 g/ha, Table 5): 0; TRZAW (wheat) damage, scale of 0-10 (wheat [7]; spray amount 200 g/ha, Table 5): 3; IPOAN (Quamoclit pennata) herbicidal efficacy, scale of 0-10 (Quamoclit pennata [8]; spray amount 200 g/ha, Table 5): 8; AESIN (Aeschynomene indica) herbicidal efficacy, scale of 0-10 (Aeschynomene indica [9]; spray amount 200 g/ha, Table 5): 10; XANST (Xanthium strumarium) herbicidal efficacy, scale of 0-10 (Xanthium strumarium [10]; spray amount 200 g/ha, Table 5): 10; ABUTH (Abutilon theophrasti Medicus) herbicidal efficacy, scale of 0-10 ([11]; spray amount 200 g/ha, Table 5): 10; PRE ORYSA (rice), damage score (rice [12]; Table 3, 200 g/ha): 8; PRE ZEAMX (maize), damage score (maize [13]; Table 3, 200 g/ha): 3; PRE TRZAW (wheat), damage score (wheat [14]; Table 3, 200 g/ha): 3 |
